Laboratory results taken from patent publication US20070031514A1, “Use of isoindolinone derivatives as insecticides” (priority 2003, published 2007).

melting point: 154 to 156 °C
Structure (SMILES): Cc1cc(C(F)(C(F)(F)F)C(F)(F)F)ccc1N1C(=O)c2cccc(Cl)c2C1NC(C)(C)CS(C)(=O)=O (stereo not shown) [Synthesis Example 2, 4-chloro-3-(2-methanesulfonyl-1,1-dimethylethylamino)-2-[2-methyl-4-(1,2,2,2-tetrafluoro-1-trifluoromethylethyl)phenyl]-2,3-dihydroisoindol-1-one]
